Data published in article doi:10.1101/2020.07.01.182642v1 (biorxiv, 2020).

Legend:
Conditions in all cases: binder
PAK4 = PAK4 (Homo sapiens, UniProt O96013)
PLK1 = PLK1 (Homo sapiens, UniProt P53350)
CHEK2 = CHEK2 (Homo sapiens, UniProt O96017)
TNIK = TNIK (Homo sapiens, UniProt Q9UKE5)
STK17B = target: T1, STK17B (Homo sapiens, UniProt O94768)
T1 sequence (O94768 1-372): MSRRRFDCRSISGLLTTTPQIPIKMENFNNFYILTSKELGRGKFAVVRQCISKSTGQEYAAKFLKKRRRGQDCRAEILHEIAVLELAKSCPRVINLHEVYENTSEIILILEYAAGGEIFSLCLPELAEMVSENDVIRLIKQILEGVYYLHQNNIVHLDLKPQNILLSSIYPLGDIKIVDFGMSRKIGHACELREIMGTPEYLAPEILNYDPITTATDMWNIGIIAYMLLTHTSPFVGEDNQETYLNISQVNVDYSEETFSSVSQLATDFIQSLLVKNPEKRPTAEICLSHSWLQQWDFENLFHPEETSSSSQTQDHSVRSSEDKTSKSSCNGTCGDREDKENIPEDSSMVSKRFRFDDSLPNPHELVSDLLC

RPS6KA2 = RPS6KA2 (Homo sapiens, UniProt Q15349)
ZAK = ZAK (Homo sapiens, UniProt Q9NYL2)
CAMK2A = CAMK2A (Homo sapiens, UniProt Q9UQM7)
SLK = SLK (Homo sapiens, UniProt Q9H2G2)
GAK = target: T2, GAK (Homo sapiens, UniProt O14976)
T2 sequence (O14976 1-1311): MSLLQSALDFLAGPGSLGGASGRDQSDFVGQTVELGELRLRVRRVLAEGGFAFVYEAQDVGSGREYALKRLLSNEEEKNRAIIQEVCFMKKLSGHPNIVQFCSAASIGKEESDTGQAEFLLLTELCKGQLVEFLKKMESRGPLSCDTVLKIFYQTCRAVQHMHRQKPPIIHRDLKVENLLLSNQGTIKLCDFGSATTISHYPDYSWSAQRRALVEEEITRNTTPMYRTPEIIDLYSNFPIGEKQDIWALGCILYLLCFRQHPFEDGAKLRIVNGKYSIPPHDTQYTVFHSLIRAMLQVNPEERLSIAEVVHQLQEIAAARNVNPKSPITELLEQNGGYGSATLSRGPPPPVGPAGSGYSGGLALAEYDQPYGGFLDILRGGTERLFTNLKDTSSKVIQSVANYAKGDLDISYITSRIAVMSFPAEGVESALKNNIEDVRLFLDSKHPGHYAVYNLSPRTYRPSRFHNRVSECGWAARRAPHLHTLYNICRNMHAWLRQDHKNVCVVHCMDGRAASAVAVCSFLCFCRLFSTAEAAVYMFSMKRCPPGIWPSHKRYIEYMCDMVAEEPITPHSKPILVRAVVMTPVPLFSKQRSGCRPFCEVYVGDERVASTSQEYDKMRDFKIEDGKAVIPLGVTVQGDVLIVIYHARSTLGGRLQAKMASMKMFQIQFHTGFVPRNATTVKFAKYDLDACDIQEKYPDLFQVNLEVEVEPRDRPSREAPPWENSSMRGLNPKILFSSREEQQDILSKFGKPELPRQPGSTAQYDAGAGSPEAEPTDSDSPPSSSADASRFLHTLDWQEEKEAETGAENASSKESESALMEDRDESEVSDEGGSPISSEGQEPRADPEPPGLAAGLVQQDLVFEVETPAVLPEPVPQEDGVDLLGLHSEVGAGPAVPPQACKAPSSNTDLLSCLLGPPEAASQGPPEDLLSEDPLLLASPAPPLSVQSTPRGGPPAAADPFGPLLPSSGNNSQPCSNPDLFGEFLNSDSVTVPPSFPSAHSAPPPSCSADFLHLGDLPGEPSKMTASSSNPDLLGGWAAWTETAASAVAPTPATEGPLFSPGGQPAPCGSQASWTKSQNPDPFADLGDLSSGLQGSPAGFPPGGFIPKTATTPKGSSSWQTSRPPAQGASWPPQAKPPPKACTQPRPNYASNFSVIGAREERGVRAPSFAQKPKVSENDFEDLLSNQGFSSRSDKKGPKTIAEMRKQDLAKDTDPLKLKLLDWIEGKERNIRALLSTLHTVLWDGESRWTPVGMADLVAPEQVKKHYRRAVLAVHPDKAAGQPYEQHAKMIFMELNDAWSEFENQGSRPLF

STK10 = STK10 (Homo sapiens, UniProt O94804)
FES = FES (Homo sapiens, UniProt P07332)
Chain of FES (P07332 whole entry): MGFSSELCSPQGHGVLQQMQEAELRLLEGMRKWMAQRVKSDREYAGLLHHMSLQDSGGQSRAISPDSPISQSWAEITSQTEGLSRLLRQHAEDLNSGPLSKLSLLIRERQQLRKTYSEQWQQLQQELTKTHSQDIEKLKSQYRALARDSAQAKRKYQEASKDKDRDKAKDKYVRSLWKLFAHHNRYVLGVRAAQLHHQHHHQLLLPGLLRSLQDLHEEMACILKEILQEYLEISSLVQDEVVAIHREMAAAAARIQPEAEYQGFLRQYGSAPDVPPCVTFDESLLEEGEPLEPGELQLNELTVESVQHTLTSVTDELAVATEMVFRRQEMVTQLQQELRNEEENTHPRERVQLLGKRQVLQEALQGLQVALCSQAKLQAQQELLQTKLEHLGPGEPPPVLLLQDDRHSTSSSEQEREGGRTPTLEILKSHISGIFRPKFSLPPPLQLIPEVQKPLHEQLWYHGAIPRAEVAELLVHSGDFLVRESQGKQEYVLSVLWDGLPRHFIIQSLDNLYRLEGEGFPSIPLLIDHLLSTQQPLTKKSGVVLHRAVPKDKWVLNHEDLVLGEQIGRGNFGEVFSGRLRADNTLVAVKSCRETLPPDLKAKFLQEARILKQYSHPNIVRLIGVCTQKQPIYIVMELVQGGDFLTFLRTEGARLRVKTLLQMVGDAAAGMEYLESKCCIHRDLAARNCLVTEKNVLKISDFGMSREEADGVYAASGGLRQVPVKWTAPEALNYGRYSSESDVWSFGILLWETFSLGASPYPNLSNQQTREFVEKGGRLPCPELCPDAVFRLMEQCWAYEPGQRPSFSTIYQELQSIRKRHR

Chain of CAMK2A (Q9UQM7 whole entry): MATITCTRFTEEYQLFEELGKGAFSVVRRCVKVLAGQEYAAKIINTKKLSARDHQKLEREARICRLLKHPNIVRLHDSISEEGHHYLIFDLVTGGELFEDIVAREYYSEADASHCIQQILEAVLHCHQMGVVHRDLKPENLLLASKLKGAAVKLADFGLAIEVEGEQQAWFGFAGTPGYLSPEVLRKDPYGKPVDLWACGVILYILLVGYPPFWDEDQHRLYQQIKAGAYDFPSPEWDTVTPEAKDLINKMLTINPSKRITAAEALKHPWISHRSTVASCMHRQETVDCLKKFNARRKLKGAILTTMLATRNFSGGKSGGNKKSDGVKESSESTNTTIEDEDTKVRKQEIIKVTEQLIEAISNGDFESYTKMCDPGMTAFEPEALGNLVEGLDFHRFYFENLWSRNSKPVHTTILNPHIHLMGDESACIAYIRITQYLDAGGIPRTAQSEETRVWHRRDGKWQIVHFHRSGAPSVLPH
Chain of PLK1 (P53350 whole entry): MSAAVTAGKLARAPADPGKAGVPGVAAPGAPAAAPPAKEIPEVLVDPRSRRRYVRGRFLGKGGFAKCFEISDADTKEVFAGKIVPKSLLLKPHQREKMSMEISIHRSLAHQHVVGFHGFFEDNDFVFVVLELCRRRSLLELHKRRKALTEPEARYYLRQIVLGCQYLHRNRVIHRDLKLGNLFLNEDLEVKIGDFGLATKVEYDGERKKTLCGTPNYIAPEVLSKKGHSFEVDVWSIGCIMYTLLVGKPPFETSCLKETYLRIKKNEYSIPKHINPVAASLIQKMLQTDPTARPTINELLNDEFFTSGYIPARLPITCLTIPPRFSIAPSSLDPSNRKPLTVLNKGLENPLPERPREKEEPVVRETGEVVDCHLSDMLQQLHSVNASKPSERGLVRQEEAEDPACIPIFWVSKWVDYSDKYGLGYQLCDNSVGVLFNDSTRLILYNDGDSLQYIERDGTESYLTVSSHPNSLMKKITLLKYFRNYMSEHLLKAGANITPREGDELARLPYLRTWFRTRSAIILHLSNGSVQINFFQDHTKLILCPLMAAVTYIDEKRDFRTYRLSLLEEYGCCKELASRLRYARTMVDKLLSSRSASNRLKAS
Chain of CHEK2 (O96017 whole entry): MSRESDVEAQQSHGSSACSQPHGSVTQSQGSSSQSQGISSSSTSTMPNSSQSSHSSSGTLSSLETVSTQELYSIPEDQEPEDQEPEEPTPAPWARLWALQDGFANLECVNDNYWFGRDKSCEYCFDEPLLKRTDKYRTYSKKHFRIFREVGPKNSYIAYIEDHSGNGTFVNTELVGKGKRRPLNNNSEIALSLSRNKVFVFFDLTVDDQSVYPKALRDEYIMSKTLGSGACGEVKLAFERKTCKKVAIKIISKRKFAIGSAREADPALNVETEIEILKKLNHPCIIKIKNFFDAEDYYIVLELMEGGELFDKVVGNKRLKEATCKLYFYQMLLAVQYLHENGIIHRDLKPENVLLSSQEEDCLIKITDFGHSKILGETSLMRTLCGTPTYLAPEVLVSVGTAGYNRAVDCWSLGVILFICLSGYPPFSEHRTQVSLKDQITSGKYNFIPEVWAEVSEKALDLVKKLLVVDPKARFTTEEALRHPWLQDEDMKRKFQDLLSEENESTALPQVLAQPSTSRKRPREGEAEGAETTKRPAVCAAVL
Chain of STK10 (O94804 whole entry): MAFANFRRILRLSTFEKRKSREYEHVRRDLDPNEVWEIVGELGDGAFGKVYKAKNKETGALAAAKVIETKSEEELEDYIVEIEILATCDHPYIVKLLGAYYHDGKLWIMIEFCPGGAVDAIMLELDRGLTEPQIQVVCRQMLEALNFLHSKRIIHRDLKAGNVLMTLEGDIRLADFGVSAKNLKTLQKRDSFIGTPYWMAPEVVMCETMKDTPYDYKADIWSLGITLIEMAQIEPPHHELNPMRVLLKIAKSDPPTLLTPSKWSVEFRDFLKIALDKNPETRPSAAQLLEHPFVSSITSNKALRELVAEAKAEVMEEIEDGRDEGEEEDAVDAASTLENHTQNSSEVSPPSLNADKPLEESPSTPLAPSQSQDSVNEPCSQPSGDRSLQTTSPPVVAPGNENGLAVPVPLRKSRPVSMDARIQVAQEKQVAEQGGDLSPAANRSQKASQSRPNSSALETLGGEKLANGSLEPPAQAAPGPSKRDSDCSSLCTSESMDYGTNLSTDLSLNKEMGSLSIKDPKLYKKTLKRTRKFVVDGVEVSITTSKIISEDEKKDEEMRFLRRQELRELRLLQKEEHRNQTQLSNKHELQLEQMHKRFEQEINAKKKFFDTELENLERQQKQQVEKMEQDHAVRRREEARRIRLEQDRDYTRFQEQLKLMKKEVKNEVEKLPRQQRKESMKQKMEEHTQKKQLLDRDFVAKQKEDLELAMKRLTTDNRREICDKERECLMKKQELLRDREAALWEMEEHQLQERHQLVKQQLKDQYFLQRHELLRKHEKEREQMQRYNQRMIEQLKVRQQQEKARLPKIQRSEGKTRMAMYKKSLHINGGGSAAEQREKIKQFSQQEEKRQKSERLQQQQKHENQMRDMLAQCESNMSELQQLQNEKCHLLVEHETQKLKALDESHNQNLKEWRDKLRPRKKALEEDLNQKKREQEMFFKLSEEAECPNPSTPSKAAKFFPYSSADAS
Chain of PAK4 (O96013 whole entry): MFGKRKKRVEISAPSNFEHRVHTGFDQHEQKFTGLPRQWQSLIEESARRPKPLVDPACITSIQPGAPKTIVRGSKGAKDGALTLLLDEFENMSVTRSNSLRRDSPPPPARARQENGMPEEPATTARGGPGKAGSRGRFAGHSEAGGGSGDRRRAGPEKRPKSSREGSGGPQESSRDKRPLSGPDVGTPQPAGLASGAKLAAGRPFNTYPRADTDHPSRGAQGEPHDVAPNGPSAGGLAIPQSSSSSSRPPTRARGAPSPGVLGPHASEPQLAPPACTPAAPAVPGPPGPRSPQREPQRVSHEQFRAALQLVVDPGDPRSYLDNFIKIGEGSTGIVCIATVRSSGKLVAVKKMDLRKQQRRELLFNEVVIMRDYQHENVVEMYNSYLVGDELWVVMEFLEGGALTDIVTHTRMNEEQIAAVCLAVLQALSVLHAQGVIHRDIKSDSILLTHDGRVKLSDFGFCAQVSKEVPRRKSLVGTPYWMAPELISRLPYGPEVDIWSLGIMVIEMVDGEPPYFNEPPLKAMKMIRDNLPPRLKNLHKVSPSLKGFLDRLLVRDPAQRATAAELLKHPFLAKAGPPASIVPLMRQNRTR
Chain of ZAK (Q9NYL2 whole entry): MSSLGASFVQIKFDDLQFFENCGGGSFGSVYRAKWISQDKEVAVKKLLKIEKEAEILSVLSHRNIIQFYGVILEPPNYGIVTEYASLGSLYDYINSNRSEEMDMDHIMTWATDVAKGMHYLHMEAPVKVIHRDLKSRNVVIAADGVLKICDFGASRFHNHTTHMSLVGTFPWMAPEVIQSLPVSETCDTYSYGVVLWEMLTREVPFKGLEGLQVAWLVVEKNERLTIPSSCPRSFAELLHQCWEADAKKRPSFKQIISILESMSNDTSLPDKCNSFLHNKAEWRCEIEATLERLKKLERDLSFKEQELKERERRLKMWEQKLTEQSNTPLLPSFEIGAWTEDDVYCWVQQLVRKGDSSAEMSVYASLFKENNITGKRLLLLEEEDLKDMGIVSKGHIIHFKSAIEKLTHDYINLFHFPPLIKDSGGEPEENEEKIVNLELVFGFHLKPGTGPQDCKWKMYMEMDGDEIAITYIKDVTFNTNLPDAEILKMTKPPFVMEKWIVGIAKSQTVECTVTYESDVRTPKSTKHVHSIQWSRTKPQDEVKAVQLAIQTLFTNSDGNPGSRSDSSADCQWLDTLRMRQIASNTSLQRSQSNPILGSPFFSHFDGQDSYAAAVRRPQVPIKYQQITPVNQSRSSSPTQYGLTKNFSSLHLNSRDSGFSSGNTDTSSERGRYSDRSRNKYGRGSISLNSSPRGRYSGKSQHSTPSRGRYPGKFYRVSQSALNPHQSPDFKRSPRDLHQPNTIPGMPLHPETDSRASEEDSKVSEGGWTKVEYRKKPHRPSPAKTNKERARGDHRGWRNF

CC(=O)c1cccc(-c2cnc3ccc(NCC4CC4)nn23)c1 [compound 1, K00135]
ΔTm inhibitor 1 (PAK4): 1.5 °C
ΔTm inhibitor 1 (PLK1): 2.0 °C
ΔTm inhibitor 1 (CHEK2): 0.8 °C
ΔTm inhibitor 1 (TNIK): 1.2 °C
ΔTm inhibitor 1 (STK17B): 4.2 °C
ΔTm inhibitor 1 (RPS6KA2): 2.7 °C
ΔTm inhibitor 1 (ZAK): 1.4 °C
ΔTm inhibitor 1 (CAMK2A): 0.5 °C
ΔTm inhibitor 1 (SLK): 2.3 °C
ΔTm inhibitor 1 (GAK): 7.3 °C
ΔTm inhibitor 1 (STK10): 3.3 °C
ΔTm inhibitor 1 (FES): 0.6 °C

CCN1/C(=C/C(C)=O)Sc2ccc(OC)cc21 [compound 2, TG003]
ΔTm inhibitor 2 (PAK4): 1.7 °C
ΔTm inhibitor 2 (PLK1): 0.3 °C
ΔTm inhibitor 2 (CHEK2): 0.1 °C
ΔTm inhibitor 2 (TNIK): 0.1 °C
ΔTm inhibitor 2 (STK17B): 1.0 °C
ΔTm inhibitor 2 (RPS6KA2): 0.4 °C
ΔTm inhibitor 2 (ZAK): -0.3 °C
ΔTm inhibitor 2 (CAMK2A): -0.1 °C
ΔTm inhibitor 2 (SLK): -0.5 °C
ΔTm inhibitor 2 (GAK): 0.2 °C
ΔTm inhibitor 2 (STK10): 0.8 °C
ΔTm inhibitor 2 (FES): -0.1 °C

Nc1nccc(-c2ccc3noc(-c4ccc(Cl)cc4)c3c2)n1 [compound 4, K00972]
ΔTm inhibitor 4 (PAK4): 1.5 °C
ΔTm inhibitor 4 (PLK1): 0.4 °C
ΔTm inhibitor 4 (CHEK2): 0.5 °C
ΔTm inhibitor 4 (TNIK): 1.2 °C
ΔTm inhibitor 4 (STK17B): 6.9 °C
ΔTm inhibitor 4 (RPS6KA2): 1.0 °C
ΔTm inhibitor 4 (ZAK): 0.3 °C
ΔTm inhibitor 4 (CAMK2A): 0.1 °C
ΔTm inhibitor 4 (SLK): 0.5 °C
ΔTm inhibitor 4 (GAK): 3.3 °C
ΔTm inhibitor 4 (STK10): 1.9 °C
ΔTm inhibitor 4 (FES): 0.3 °C
